Results published in patent US12329757B2, “Methods for increasing sepiapterin plasma exposure” (PTC Therapeutics MP, Inc., priority 2018, dated 2025).
Like-named read-outs stand apart in the source and are kept apart here.

What was measured:
[1] = Food effect on administration of sepiapterin: plasma concentrations of BH4 and sepiapterin in fasted and fed subjects; assay type: in vivo; conditions: sepiapterin 10 mg/kg oral
Method: Method: Subjects received 2 oral doses of sepiapterin (10 mg/kg) separated by 1 week in a fasted and fed state. Subjects were fed a standard high-fat (approximately 50 percent of total caloric content of the meal) and high-calorie (approximately 800 to 1000 calories) meal starting 30 minutes prior to receiving their second oral dose of sepiapterin on Day 8.
Sampling for PK analysis occurred predose on Days 1 and 8 (within 30 minutes before dosing) and 0.5 hr, 1 hr, 2 hr, 4 hr, 8 hr, 12 hr, and 24 hr after the doses on Days 1 and 8. The blood concentrations of sepiapterin and BH4 were analyzed by MNG Labs.

[2] = Pharmacokinetic parameters for BH4 after single dose of sepiapterin or BH4 in fasted subjects; assay type: in vivo
Method: Six subjects received sepiapterin in each group and three subjects received BH4 in each group where this treatment was administered. Table 5. Summary of pharmacokinetic parameters for BH4 after administration of single dose of sepiapterin or BH4 in fasted subjects.
Values shown are means of plasma concentrations of BH4 following administration at the doses shown.

[3] = fasted vs fed prior to administration

With `C[C@H](O)C(=O)C1=Nc2c(nc(N)[nH]c2=O)NC1` [sepiapterin, Sepiapterin] the “Sepiapterin Concentration in Plasma, Mean” value ([1]; fasted, 0 h (predose)) was 0 nM, the “Sepiapterin Concentration in Plasma, Median” value ([1]; fasted, 0 h (predose)) was 0 nM and the concentration at 24 h ([1]; fasted, 0 h (predose), read-out: Sepiapterin Concentration in Plasma, Maximum) was 0 nM. The concentration at 2 h ([1]; fasted, 0 h (predose), read-out: Sepiapterin Concentration in Plasma, Minimum) was 0 nM, the “Sepiapterin Concentration in Plasma, Mean” value ([1]; fasted, 8 h) was 0 nM and the “Sepiapterin Concentration in Plasma, Median” value ([1]; fasted, 8 h) was 0 nM. The concentration at 2 h ([1]; fasted, 8 h, read-out: Sepiapterin Concentration in Plasma, Minimum) was 0 nM, the “Sepiapterin Concentration in Plasma, Mean” value ([1]; fasted, 12 h) was 0 nM and the “Sepiapterin Concentration in Plasma, Median” value ([1]; fasted, 12 h) was 0 nM. For the same compound, the concentration at 2 h ([1]; fasted, 12 h, read-out: Sepiapterin Concentration in Plasma, Minimum) was 0 nM, the “Sepiapterin Concentration in Plasma, Mean” value ([1]; fasted, 24 h) was 0 nM and the “Sepiapterin Concentration in Plasma, Median” value ([1]; fasted, 24 h) was 0 nM. The concentration at 2 h ([1]; fasted, 24 h, read-out: Sepiapterin Concentration in Plasma, Minimum) was 0 nM, the “Sepiapterin Concentration in Plasma, Mean” value ([1]; fed, 0 h (predose)) was 0 nM and the “Sepiapterin Concentration in Plasma, Median” value ([1]; fed, 0 h (predose)) was 0 nM. The concentration at 24 h ([1]; fed, 0 h (predose), read-out: Sepiapterin Concentration in Plasma, Maximum) was 0 nM, the “Sepiapterin Concentration in Plasma, Median” value ([1]; fed, 0.5 h) was 0 nM and the concentration at 2 h ([1]; fed, 0.5 h, read-out: Sepiapterin Concentration in Plasma, Minimum) was 0 nM. The concentration at 2 h ([1]; fed, 4 h, read-out: Sepiapterin Concentration in Plasma, Minimum) was 0 nM, the “Sepiapterin Concentration in Plasma, Median” value ([1]; fed, 8 h) was 0 nM and the concentration at 2 h ([1]; fed, 8 h, read-out: Sepiapterin Concentration in Plasma, Minimum) was 0 nM. The “Sepiapterin Concentration in Plasma, Mean” value ([1]; fed, 12 h) was 0 nM, the “Sepiapterin Concentration in Plasma, Median” value ([1]; fed, 12 h) was 0 nM and the concentration at 24 h ([1]; fed, 12 h, read-out: Sepiapterin Concentration in Plasma, Maximum) was 0 nM. The concentration at 2 h ([1]; fed, 12 h, read-out: Sepiapterin Concentration in Plasma, Minimum) was 0 nM, the “Sepiapterin Concentration in Plasma, Mean” value ([1]; fed, 24 h) was 0 nM and the “Sepiapterin Concentration in Plasma, Median” value ([1]; fed, 24 h) was 0 nM. The concentration at 24 h ([1]; fed, 24 h, read-out: Sepiapterin Concentration in Plasma, Maximum) was 0 nM, the concentration at 2 h ([1]; fed, 24 h, read-out: Sepiapterin Concentration in Plasma, Minimum) was 0 nM and the concentration at 0.5 h ([1]; human, plasma, fasted, 0.5 h, read-out: Sepiapterin Concentration in Plasma, Minimum) was 0 nM. The concentration at 4 h ([1]; human, plasma, fasted, 4 h, read-out: Sepiapterin Concentration in Plasma, Minimum) was 0 nM, the concentration at 8 h ([1]; human, plasma, fasted, 8 h, read-out: Sepiapterin Concentration in Plasma, Maximum) was 0 nM and the concentration at 12 h ([1]; human, plasma, fasted, 12 h, read-out: Sepiapterin Concentration in Plasma, Maximum) was 0 nM. For the same compound, the concentration at 24 h ([1]; human, plasma, fasted, 24 h, read-out: Sepiapterin Concentration in Plasma, Maximum) was 0 nM, the concentration at 0 h ([1]; human, plasma, fed, 0 h (predose), read-out: Sepiapterin Concentration in Plasma, Minimum) was 0 nM and the concentration at 1 h ([1]; human, plasma, fed, 1 h, read-out: Sepiapterin Concentration in Plasma, Minimum) was 0 nM. The concentration at 2 h ([1]; human, plasma, fed, 2 h, read-out: Sepiapterin Concentration in Plasma, Minimum) was 0 nM, the “Cmax of BH4 in the plasma, fasted compared to fed” value [1, 3] was “much lower” and the “Cmax of sepiapterin in the plasma, fasted compared to fed” value [1, 3] was “much higher”. The “AUC0-24 of BH4, sepiapterin compared to BH4 administration” value [2] was “much higher” and the “AUC0-inf of BH4, sepiapterin compared to BH4 administration” value [2] was “much higher”.
